Data as given in the supplement of paper PMC10307832.

Assays:
Assay in all cases: relative viability (nuclei count vs DMSO), 5 days (fraction); higher = more cells survive
4EGI-1 + Palbociclib = compound: O=C(O)C(Cc1ccccc1[N+](=O)[O-])=NNc1nc(-c2ccc(Cl)c(Cl)c2)cs1 (mixture of isomers) [4EGI-1] + CC(=O)c1c(C)c2cnc(Nc3ccc(N4CCNCC4)cn3)nc2n(C2CCCC2)c1=O [Palbociclib] (partner 0.5 µM)
In short: (§1)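 Lung cancer cell lines were pin-tool dosed in 1536-well plates on the day after seeding, with either a lone drug or a fixed anchor-drug dose plus five library-drug doses (not always all listed) in √10 steps. Nuclei were counted on 4× images after 5 days. Relative viability is the ratio of treated-well to vehicle-well nuclei counts, with each value a median of duplicate plates.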

XMD8-85 + Crizotinib = compound: CN1CCN(CC1)C2=CC(=C(C=C2)NC3=NC=C4C(=N3)N(C5=CC=CC=C5C(=O)N4C)C)OC [XMD8-85] + C[C@@H](Oc1cc(-c2cnn(C3CCNCC3)c2)cnc1N)c1c(Cl)ccc(F)c1Cl [Crizotinib] (partner 1 µM)
In short: as §1

XMD8-85 + Linsitinib = compound: CN1CCN(CC1)C2=CC(=C(C=C2)NC3=NC=C4C(=N3)N(C5=CC=CC=C5C(=O)N4C)C)OC [XMD8-85] + C[C@]1(O)C[C@@H](c2nc(-c3ccc4ccc(-c5ccccc5)nc4c3)c3c(N)nccn32)C1 [Linsitinib] (partner 1 µM)
In short: as §1

4EGI-1 + Decitabine = compound: O=C(O)C(Cc1ccccc1[N+](=O)[O-])=NNc1nc(-c2ccc(Cl)c(Cl)c2)cs1 (mixture of isomers) [4EGI-1] + Nc1ncn([C@H]2C[C@H](O)[C@@H](CO)O2)c(=O)n1 [Decitabine] (partner 2 µM)
In short: as §1

Row | Cell Line | relative viability (4EGI-1 + Palbociclib; first compound 0.5 µM) | relative viability (4EGI-1 + Palbociclib; first compound 1.581 µM) | relative viability (4EGI-1 + Palbociclib; first compound 5 µM) | relative viability (4EGI-1 + Palbociclib; first compound 15.81 µM) | relative viability (4EGI-1 + Palbociclib; first compound 50 µM) | relative viability (XMD8-85 + Crizotinib; first compound 0.08 µM) | relative viability (XMD8-85 + Crizotinib; first compound 0.253 µM) | relative viability (XMD8-85 + Crizotinib; first compound 0.8 µM) | relative viability (XMD8-85 + Crizotinib; first compound 2.53 µM) | relative viability (XMD8-85 + Crizotinib; first compound 8 µM) | relative viability (XMD8-85 + Linsitinib; first compound 0.08 µM) | relative viability (XMD8-85 + Linsitinib; first compound 0.253 µM) | relative viability (XMD8-85 + Linsitinib; first compound 0.8 µM) | relative viability (XMD8-85 + Linsitinib; first compound 2.53 µM) | relative viability (XMD8-85 + Linsitinib; first compound 8 µM) | relative viability (4EGI-1 + Decitabine; first compound 0.5 µM) | relative viability (4EGI-1 + Decitabine; first compound 1.581 µM) | relative viability (4EGI-1 + Decitabine; first compound 5 µM) | relative viability (4EGI-1 + Decitabine; first compound 15.81 µM) | relative viability (4EGI-1 + Decitabine; first compound 50 µM)
1 | NCI-H661 | 0.454 | 0.413 | 0.385 | 0.31 | 0.284 | 1.03 | 1.16 | 0.905 | 1.1 | 0.854 | 0.523 | 0.518 | 0.523 | 0.579 | 0.448 | 0.582 | 0.568 | 0.519 | 0.385 | 0.341
2 | A-427 | 0.543 |  | 0.535 | 0.492 | 0.319 | 0.897 | 0.934 | 0.922 | 1.05 | 0.56 | 1.24 | 1.18 | 1.11 | 1.16 | 1.02 | 0.575 |  | 0.592 | 0.513 | 0.336
3 | LCLC-97TM1 | 0.224 |  | 0.227 | 0.177 | 0.123 | 0.321 | 0.569 | 0.558 | 0.456 | 0.333 | 0.168 | 0.218 | 0.176 | 0.199 | 0.232 | 0.278 |  | 0.23 | 0.248 | 0.124
4 | LK-2 | 0.692 |  | 0.639 | 0.803 | 0.539 | 0.232 | 0.244 | 0.201 | 0.226 | 0.262 | 0.524 | 0.52 | 0.498 | 0.365 | 0.445 | 0.273 |  | 0.318 | 0.315 | 0.166
5 | SK-MES-1 | 0.354 | 0.27 | 0.336 | 0.288 | 0.18 | 0.964 | 1.03 | 0.94 | 0.923 | 0.61 | 1.09 | 0.942 | 0.95 | 1 | 0.964 | 0.384 | 0.323 | 0.362 | 0.285 | 0.241
6 | LU99A | 0.41 | 0.281 | 0.396 | 0.498 | 0.297 | 0.476 | 0.484 | 0.687 | 0.626 | 0.367 | 0.451 | 0.566 | 0.545 | 0.531 | 0.459 | 0.879 | 0.699 | 0.83 | 0.851 | 0.508
7 | NCI-H1993 | 0.727 | 0.624 | 0.584 | 0.52 | 0.366 | 0.783 | 0.77 | 0.869 | 0.944 | 0.64 | 0.814 | 0.669 | 0.812 | 0.718 | 0.704 | 0.74 | 0.548 | 0.588 | 0.619 | 0.462
8 | NCI-H441 | 0.283 | 0.2 | 0.23 | 0.185 | 0.146 | 0.592 | 0.648 | 0.89 | 0.931 | 0.485 | 0.473 | 0.683 | 0.647 | 0.5 | 0.388 | 0.262 | 0.258 | 0.251 | 0.244 | 0.18
9 | NCI-H1666 | 0.673 | 0.693 | 0.633 | 0.641 | 0.598 | 0.789 | 0.917 | 1.35 | 1.31 | 0.705 | 1.04 | 0.79 | 0.859 | 0.769 | 0.696 | 0.749 | 0.609 | 0.758 | 0.564 | 0.495
10 | NCI-H2023 | 0.358 |  | 0.483 | 0.245 | 0.0543 | 0.578 | 0.627 | 0.705 | 0.544 | 0.287 | 0.564 | 0.811 | 0.76 | 0.657 | 0.34 | 0.242 | 0.173 | 0.221 | 0.128 | 0.0871
11 | NCI-H322M | 0.461 |  | 0.516 | 0.46 | 0.453 | 0.872 | 1.03 | 0.929 | 0.996 | 0.55 | 0.853 | 0.986 | 0.864 | 0.825 | 0.933 | 0.692 |  | 0.764 | 0.636 | 0.727
12 | NCI-H838 | 0.237 | 0.223 | 0.228 | 0.2 | 0.119 | 0.774 | 0.808 | 1.07 | 0.815 | 0.292 | 0.979 | 0.958 | 1.2 | 1 | 0.507 | 0.469 | 0.509 | 0.389 | 0.312 | 0.238
